The source of these data is PMC8014892, “Permeation Studies across Symmetric and Asymmetric Membranes in Microdroplet Arrays” (Analytical Chemistry, 2021).

Entries after “also recorded” stand apart in the source; their conditions may differ. Read-outs that look alike come from different tables or passages of the source.

Data set [1] in a line: Permeation across symmetric 100% DOPC DIBs in droplet pairs, fluorescence microscopy. The data set is classed as in vitro ADME. As to conditions: for Papp at 50 µM: not told, droplet pairs, N = 27; for Papp at 50 µM / kad / kda: acceptor 100% DOPC; for Papp at 50 µM / Permeation across the DIB (observation in words): 37 °C; for Permeation across the DIB (observation in words): pH 6.0, 100% DOPC DIBs, calcein observed for 2900 minutes. How it is done:
The lipid-out approach was used to add phospholipids to the water/oil interface, i.e., lipids were dissolved in the oil phase. We purchased 1,2-dioleoyl-sn-glycero-3-phosphocholine (DOPC) and 1,2-dioleoyl-sn-glycero-3-phospho-L-serine (DOPS) as solutions in chloroform from Avanti Polar Lipids (Alabaster, AL, U.S.A.). We placed the required lipids in pear-shaped flasks and removed the chloroform with a rotary evaporator (Büchi Labortechnik AG, Flawil, Switzerland) forming a film. The lipid film was dissolved in a 1:1 (v/v) mix of hexadecane (reagent plus grade, Sigma–Aldrich) and squalane (Sigma–Aldrich) in an ultrasonication bath at 50 °C for ∼30 min. The final phospholipid concentration in oil was 0.625 mM for donor droplets and 1.25 mM for acceptor droplets.
We used either 100% DOPC or 30% DOPC and 70% DOPS mixtures (mole percentage). We filtrated the phospholipid-oil solution before use (0.45 μm pore size, RC 4 Male Luer Slip Minisart filters, Huberlab, Switzerland).
All aqueous solutions were prepared in LC–MS grade water (Fisher Scientific, Loughborough, U.K.). We used as buffers 20 mM 2-morpholinoethanesulfonic acid (MES, pH 6.0, Alfa Aesar), 20 mM phosphate buffer (pH 7.0, Acros Organics), 50 mM 4-(2-hydroxyethyl)-1-piperazineethanesulfonic acid (HEPES, pH 7.4, gibco, Paisley, U.K.), or 20 mM tris(hydroxymethyl)aminomethane (Tris, pH 8.0, VWR). […] PEG4-NBD was synthesized from succinimidyl 6-(N-(7-nitrobenz-2-oxa-1,3-diazol-4-yl)amino)hexanoate (NBD NHS-ester, Molecular Probes Life Technologies, Eugene, OR, U.S.A.) and amine-terminated poly(ethylene glycol)-4 alcohol (Amino-PEG4-OH, Quanta Biodesign, Plain City, OH, U.S.A.).[26] A 1:1 molar ratio of the NBD NHS-ester and Amino-PEG4-OH was reacted in a 10:1 (v/v) solution of chloroform (Sigma–Aldrich) and triethylamine (Brenntag Schweizerhall, Basel, Switzerland). The reaction was held at 45 °C for 2 h, followed by 22 °C for 12 h. Afterward, the reaction products were separated with a preparative liquid chromatography system (Prep 150 LC system, Waters). The mass of the product PEG4-NBD was confirmed with an LC–MS system (Ultimate 3000 MSQ, Dionex).
We placed the microarray plate in a removable temperature-controlled holder (T = 37 °C) with a transparent bottom, which was mounted on a motorized XY stage (HLD117, Prior) of an inverted fluorescence microscope (Olympus IX73). We carried out the experiments in an oil bath to reduce droplet evaporation. The plate holder was filled with ∼4 mL of 1:1 (v/v) hexadecane:squalane without phospholipids and 50 μL of water in all four edges to reduce droplet shrinkage. We used a self-made microfluidic T-junction device made of polycarbonate (PC) to generate droplets of ∼25 nL by continuously injecting the aqueous phase (flow rate: 0.5 μL/min) into the immiscible oil phase (flow rate: 2 μL/min). The droplets were transported through a capillary onto the microarray plate. In this time, the phospholipids in the oil aligned along the water/oil interface and formed a monolayer.[27],[28] We mounted the end of the capillary on a motorized Z stage (M-403.2PD, Physik Instrumente, Karlsruhe, Germany). The generated droplets were detected in the capillary holder with a custom-made optical droplet detection system.[22] This was utilized to selectively deposit a single droplet per predefined position by synchronizing droplet generation and capillary and microarray movements. All components of the microscope and the capillary were controlled by the software YouScope for automated microscopy (R2018, v2.1.0).[29]
Fluorescence and bright-field pictures were recorded using a light source (Lumen 300, Prior and TH4-200, Olympus) and a complementary metal oxide semiconductor (CMOS) camera (Zyla 4.2, Andor) connected to the Olympus IX73 microscope. To track fluorescein, calcein, and PEG4-NBD, a blue excitation filter set (exciter HQ470/40x, dichroic 500dcxr BS, and emitter E515lpv2; Chroma Technology Corp, Bellows Falls, VT, U.S.A.) was used. […]

Data set [2] can be described thus: Permeation across symmetric and asymmetric DIBs containing 30% DOPC 70% DOPS, droplet pairs, fluorescence microscopy. The data set is classed as in vitro ADME. To be noted: not told.
Procedure: We placed the microarray plate in a removable temperature-controlled holder (T = 37 °C) with a transparent bottom, which was mounted on a motorized XY stage (HLD117, Prior) of an inverted fluorescence microscope (Olympus IX73). We carried out the experiments in an oil bath to reduce droplet evaporation. […] The generated droplets were detected in the capillary holder with a custom-made optical droplet detection system.[22] […]
Fluorescence and bright-field pictures were recorded using a light source (Lumen 300, Prior and TH4-200, Olympus) and a complementary metal oxide semiconductor (CMOS) camera (Zyla 4.2, Andor) connected to the Olympus IX73 microscope. […]
The recorded fluorescence signals were evaluated using Fiji[30] and OriginPro (2019, 9.6, OriginLab Corporation). First, we subtracted the background fluorescence for data evaluation. In a next step, we normalized the fluorescence to compensate for potential leakage into the oil phase, membrane partitioning, shrinkage of droplets, or fluorescence bleaching. For the normalization, the sum of fluorescence of all droplets in the first image was set to 100%. […]
Data set [3] can be described thus: Label-free permeation analysis of droplet pairs by LC-MS. To be noted: not told, pH 6, pH 6.0, LC-MS, N = 4. Type of data set: in vitro ADME. As for the experimental part:
For subsequent LC–MS analysis, we used a recently developed protocol to split the droplet pairs.[24] The capillary used before for spotting of droplets was flushed with hexadecane/squalane (1:1) and placed between two connecting droplets to separate the droplet pairs. To extract individual droplets, the capillary was flushed with fluorinated oil (HFE-7500, 3 M Novec, Hadfield, U.K.) and connected to a 50 μL glass syringe (Hamilton, Switzerland). The center of the capillary was lowered to a height where it slightly squeezed the droplet. Subsequently, by slowly pulling the glass syringe, the droplet was aspirated. Afterward, the capillary was moved over a small tube (TreffLab Degersheim, Switzerland), and the aspirated droplet was ejected. […]
The sample was analyzed in a 1260 II Infinity LC Quaternary system coupled to a single quadrupole atmospheric pressure ionization-electrospray (API-ES) G6130B mass spectrometer (Agilent). […] All analytes were detected with selected ion monitoring (SIM) in a positive mode. […]
Equations 1 and 2 were fitted to the data with OriginPro. […] Data from every droplet pair were individually fitted and evaluated. […] We further approximated that the area of the droplet interface bilayer is circular,[32] and we calculated the area (A) for the individual droplet pairs via the measured droplet interface bilayer diameter from the bright-field images (as indicated in Table S1). […]

Data set [4] can be described thus: Permeation over multiple compartments (one donor, four acceptor droplets in series). Type of data set: in vitro ADME. To be noted: for Papp at 50 µM: not told. How it is done: For several acceptor droplets in series, the numerical solutions of a differential equation system according to eqs 5 to 7 were fitted to the normalized fluorescence data of donor and acceptor droplets. The solutions of the differential equation system and the fitting were performed with the Matlab (version 2018a, Mathworks) functions ode15s, fmincon (minimizing the sum of squared residues), and MultiStart. [drawing 5] 5 [drawing 6] 6 [drawing 7] 7
W(n) is the fluorescence in the water phase of droplet n, k is the mass transfer rate constant (the fit parameter), and N is the total number of donor and acceptor droplets. The expression N > 2 equals 1 if N > 2 and 0 if N ≤ 2, and n < N equals 1 if n < N and 0 if n ≥ N.
Our platform allows for spotting droplet lines, instead of just pairs. With this, we can monitor how permeation and diffusion of compounds progress over several compartments. For creation of multiple droplets, connected via DIBs, we used a modified glass plate, where cavities were created in lines. Several fluorophore-free acceptor droplets were deposited in this line accordingly. The last droplet contained fluorescein, which permeates over the multiple compartments. […] Permeation at pH 7.4 was slower, which was expected from the experiments with the droplet pairs and from the ionization state of fluorescein (Supporting Information, Figure S11). The Papp,fit at pH 7.4 was (19.01 ± 1.16) × 10^–6 cm/s, higher than determined with the droplet pairs at pH 7.0 (7.05 ± 0.42) × 10^–6 cm/s. […] The lag phase observed at pH 7.0 (Supporting Information Figure S5) has a higher impact on the fit parameters in the assay with only two droplets (reducing the apparent rate constants) than with several droplets in series.

For data set [5] the following is noted: cited from earlier work.
On the set-up of data set [6]: method as in PMID 19560324. As to conditions: calcein permeation across liposome membranes; cited from earlier work.

For `CC/N=c1\cc2oc3cc(NCC)c(C)cc3c(-c3ccccc3C(=O)OCC)c-2cc1C` [rhodamine 6G], the Papp (commonly a coefficient for how fast a substance crosses the barrier) at 50 µM in data set [1] (pH 6, donor 100% DOPC) was 10.4 ×10⁻⁶ cm/s; in data set [2] (pH 6, pH 6, donor 30% DOPC 70% DOPS, acceptor 30% DOPC 70% DOPS (symmetric)) it was 12.1 ×10⁻⁶ cm/s; in data set [2] (pH 6, pH 6, donor 30% DOPC 70% DOPS, acceptor 100% DOPC (asymmetric)), 19.6 ×10⁻⁶ cm/s; in data set [2] (pH 6, pH 6, donor 100% DOPC, acceptor 30% DOPC 70% DOPS (asymmetric)), 6.56 ×10⁻⁶ cm/s; in data set [3] (eq 3, fit of all data, read-out: Papp.fit (MS)), 6.28 ± 0.68 ×10⁻⁶ cm/s; in data set [3] (eq 4, sink condition, first two data points, read-out: Papp.sink (MS)), 9.42 ± 2.17 ×10⁻⁶ cm/s. In addition, the kad in data set [1] (pH 6, donor 100% DOPC) was 166.8 × 10-6 (1/s). The kda in data set [1] (pH 6, donor 100% DOPC) is given as 166.8 × 10-6 (1/s).
On to `O=C1OC2(c3ccc(O)cc3Oc3cc(O)ccc32)c2ccccc21` [fluorescein], for which the Papp at 50 µM in data set [1] (pH 6, donor 100% DOPC) came to 193 ± 17.8 ×10⁻⁶ cm/s; in data set [1] (pH 7, donor 100% DOPC) it was 7.05 ± 0.42 ×10⁻⁶ cm/s; in data set [1] (pH 8, donor 100% DOPC) it was 1.05 ± 0.06 ×10⁻⁶ cm/s; in data set [4] (pH 6, one donor to four acceptor droplets, 100% DOPC, eqs 5–7 and 3, N = 12 droplet networks), 200 ± 9.73 ×10⁻⁶ cm/s; in data set [4] (pH 7.4, one donor to four acceptor droplets, eqs 5–7 and 3) it was 19 ± 1.16 ×10⁻⁶ cm/s. Also, the “Permeation across the DIB (observation in words)” value in data set [1] was “permeated across the DIB”. Besides, the kad is reported as 4046.0 × 10-6 (1/s) in data set [1] (pH 6, donor 100% DOPC); 145.0 × 10-6 (1/s) in data set [1] (pH 7, donor 100% DOPC); 20.3 × 10-6 (1/s) in data set [1] (pH 8, donor 100% DOPC). The kda was 4046.0 × 10-6 (1/s) in data set [1] (pH 6, donor 100% DOPC); 145.0 × 10-6 (1/s) in data set [1] (pH 7, donor 100% DOPC); 20.3 × 10-6 (1/s) in data set [1] (pH 8, donor 100% DOPC). Further, in data set [4] (pH 6, five droplets in series), the “Time until equilibrium was reached in all five droplets” value is given as “approximately 30 min”. Besides, the permeation constant in data set [5] (pH 6.4, Nisisako et al.) was 60.0 ± 22.4 × 10^–6 cm/s; in data set [5] (pH 7.4, Schlicht and Zagnoni), 2.01 ± 1.46 × 10^–6 cm/s; in data set [5] (pH 7.5, Nisisako et al.), 5.1 ± 1.8 × 10^–6 cm/s.
For the compound `O=C(O)CN(CC(=O)O)Cc1cc2c(cc1O)Oc1cc(O)c(CN(CC(=O)O)CC(=O)O)cc1C21OC(=O)c2ccccc21` [calcein], the “Permeation across the DIB (observation in words)” value in data set [1] was “no permeation was observed”; in data set [1] (listed as Calcein), “did not permeate; also recorded: No permeation observed”. Moreover, the permeability coefficients in data set [6] is reported as 10^–10 to 10^–11 cm/s.
